system: transgenic mice that express both human CETP and human apolipoprotein A-1; assay: Assay of plasma lipids in vivo (HDL cholesterol elevation); settings: single oral dose 30 mg/kg; 8 hr after dosing; serum HDL cholesterol relative to control; human CETP/human apoA-1 transgenic mice
Experimental: Assay of Plasma Lipids In Vivo
Activity of compounds of this invention in vivo can be determined by comparing the level of elevation of HDL cholesterol relative to control by a given amount of a compound in a CETP-containing animal species. A strain of transgenic mice that express both human CETP and human apolipoprotein A-1 (Taconic, Germantown, N.Y.) is used to test compounds of this invention. Test compounds are administered once orally in selected aqueous or oil based vehicles. At various times after dosing, ranging from 4 h to 24 h, blood is obtained. Blood is allowed to clot and serum is obtained by centrifugation. HDL cholesterol levels in the serum is determined by HDL-C plus reagents (Roche/Hitachi, Indianapolis, Ind.) with a clinical chemistry analyzer (Roche/Hitachi, Indianapolis, Ind.). Additional serum lipids can be analyzed by enzymatic methods. Lipids in the VLDL, LDL and HDL fractions are analyzed by enzymatic methods after precipitation or size exclusion chromatography.

Compared with CCC1CC(N(Cc2cc(C(F)(F)F)cc(C(F)(F)F)c2)c2nnn(C)n2)c2nc(OC)ccc2N1C(=O)OC(C)C (racemic) [Example 8, (+/−)-cis-4-[(3,5-Bis-trifluoromethyl-benzyl)-2-methyl-2H-tetrazol-5-yl)-amino]-2-ethyl-6-methoxy-3,4-dihydro-2H-[1,5]naphthyridine-1-carboxylic acid isopropyl ester], CC[C@@H]1C[C@H](N(Cc2cc(C(F)(F)F)cc(C(F)(F)F)c2)c2nnn(C)n2)c2nc(C(F)(F)F)ccc2N1C(=O)OC(C)C [Example 11] is lower in “% HDL cholesterol increase” value: 313% for the first, 134% for the second.

Going from CC(C)OC(=O)N1c2ccc(C(F)(F)F)nc2C(N(Cc2cc(C(F)(F)F)cc(C(F)(F)F)c2)c2nnn(C)n2)CC1C1CC1 (racemic) [Example 52, (+/−)-cis-4-[(3,5-Bis-trifluoromethyl-benzyl)-(2methyl-2H-tetrazole-5-yl)-amino]-2-cyclopropyl-6-trifluoromethyl-3,4-dihydro-2H-[1,5]naphthyridine-1-carboxylic acid isopropyl ester] to CC[C@H]1C[C@@H](N(Cc2cc(C(F)(F)F)cc(C(F)(F)F)c2)c2nnn(CCO)n2)c2nc(C(F)(F)F)ccc2N1C(=O)OC(C)C (stereo in doubt) [Example 18, (2S,4R)-4-[(3,5-Bis-trifluoromethyl-benzyl)-[2-(2-hydroxy-ethyl)-2H-tetrazol-5-yl)-amino]-2-ethyl-6-trifluoromethyl-3,4-dihydro-2H-[1,5]naphthyridine-1-carboxylic acid isopropyl ester], the “% HDL cholesterol increase” value rises from 66% to 187%.

In the case of CC[C@@H]1C[C@H](N(Cc2cc(C(F)(F)F)cc(C(F)(F)F)c2)c2nnn(CCN)n2)c2nc(C(F)(F)F)ccc2N1C(=O)OC(C)C [Example 15, (2R,4S)-cis-4-[[2-(2-Amino-ethyl)-2H-tetrazol-5-yl]-(3,5-bis-trifluoromethyl-benzyl)-amino]-2-ethyl-6-trifluoromethyl-3,4-dihydro-2H-[1,5]naphthyridine-1-carboxylic acid isopropyl ester], the “% HDL cholesterol increase” value is reported as 91%.

— patent US7470705B2, “Compounds and methods for treating dyslipidemia” (Eli Lilly and Company, priority 2004, dated 2008)
